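1) Cells in 96-well plates. 2) Compound, 48 h, 5 concentrations. 3) Linear interpolation between surrounding doses. 4) Unreached endpoint = highest concentration. TGI: total growth inhibition.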
Experiments:
Assay in all cases: DTP human tumour cell line panel, 48 h
BT-549 breast = system: BT-549 breast
SR leukemia = system: SR leukemia
SK-MEL-28 melanoma = system: SK-MEL-28 melanoma
SF-539 CNS = system: SF-539 CNS
UACC-62 melanoma = system: UACC-62 melanoma
HCT-15 colon = system: HCT-15 colon
MALME-3M melanoma = system: MALME-3M melanoma
NCI-H23 lung = system: NCI-H23 lung
SF-295 CNS = system: SF-295 CNS
COLO 205 colon = system: COLO 205 colon
NCI-H460 lung = system: NCI-H460 lung
HS 578T breast = system: HS 578T breast
KM12 colon = system: KM12 colon
HCT-116 colon = system: HCT-116 colon
OVCAR-8 ovarian = system: OVCAR-8 ovarian
MCF7 breast = system: MCF7 breast
OVCAR-3 ovarian = system: OVCAR-3 ovarian
HOP-62 NSCLC = system: HOP-62 NSCLC

| SMILES | TGI (BT-549 breast) | TGI (SR leukemia) | TGI (SK-MEL-28 melanoma) | TGI (SF-539 CNS) | TGI (UACC-62 melanoma) | TGI (HCT-15 colon) | TGI (MALME-3M melanoma) | TGI (NCI-H23 lung) | TGI (SF-295 CNS) | TGI (COLO 205 colon) | TGI (NCI-H460 lung) | TGI (HS 578T breast) | TGI (KM12 colon) | TGI (HCT-116 colon) | TGI (OVCAR-8 ovarian) | TGI (MCF7 breast) | TGI (OVCAR-3 ovarian) | TGI (HOP-62 NSCLC) |
| --- | --- | --- | --- | --- | --- | --- | --- | --- | --- | --- | --- | --- | --- | --- | --- | --- | --- | --- |
| CC(C)(C)c1ccc(-n2c3nc(=O)n(-c4ccccc4CO)c(=O)c-3cc3ccccc32)cc1 | > 100 µM | 73 µM | > 100 µM | 88.1 µM | > 100 µM | > 100 µM | > 100 µM | > 100 µM | > 100 µM | > 100 µM | > 100 µM | > 100 µM | > 100 µM | > 100 µM | > 100 µM | > 100 µM |  |  |
| c1ccc2c(c1)cc1c3[nH]c4ccccc4c3ccn21 | > 10 µM | > 10 µM | > 10 µM | > 10 µM | > 10 µM | > 10 µM | 4.48 µM | > 10 µM | > 10 µM | 3.41 µM | > 10 µM | > 10 µM | > 10 µM | > 10 µM | > 10 µM | > 10 µM | > 10 µM | > 10 µM |
| CN(C)CCCNc1c(C#N)[n+]([O-])c2cc(Cl)ccc2[n+]1[O-] | 31.1 µM | 5.28 µM | > 100 µM | 47.4 µM | 17.4 µM | 18.6 µM | 17.4 µM | 23.5 µM | > 49.1 µM | 14.6 µM | 13.2 µM | > 100 µM | 26.9 µM | 30 µM | > 51.3 µM | > 52.7 µM | > 34.9 µM | > 48.7 µM |
| COC(=O)CN1SC2(SC13C(C)(C)C(=O)C3(C)C)C(C)(C)C(=O)C2(C)C | 90.3 µM | > 100 µM | > 100 µM | > 100 µM | > 100 µM | > 100 µM | > 100 µM | > 100 µM | > 100 µM | > 100 µM |  | > 100 µM | > 100 µM | > 100 µM | > 100 µM | > 100 µM | > 100 µM | > 100 µM |
| O=c1n(-c2ccccc2)c(=O)n2n1C1Cc3ccccc3C12 (centres undefined) | > 100 µM | > 100 µM | > 100 µM | > 100 µM | > 100 µM | > 100 µM |  | > 100 µM | > 100 µM | > 100 µM | > 100 µM | > 100 µM | > 100 µM | > 100 µM | > 100 µM | > 100 µM | > 100 µM | > 100 µM |
| O=C1C=CC2(O)OCCN(CCO)C2=C1 (centres undefined) (tested in a mixture with another compound) | > 100 µM | > 100 µM | > 100 µM |  | > 100 µM | > 100 µM | > 100 µM | > 100 µM | > 100 µM | > 100 µM | > 100 µM | > 100 µM | > 100 µM | > 100 µM | > 100 µM | > 100 µM | > 100 µM | > 100 µM |
| Nc1ncnc2c1ncn2C1OC(CO)C(O)C(O)C1O (centres undefined) | > 100 µM | > 100 µM | > 100 µM | > 100 µM |  | > 100 µM | > 100 µM | > 100 µM | > 100 µM | > 100 µM | > 100 µM | > 100 µM | > 100 µM | > 100 µM | > 100 µM | > 100 µM | > 100 µM | > 100 µM |
| CCOC(=O)[C@@H]1CCN2CN(c3ccc(OC)cc3)N=C(c3ccccc3)[C@@]12c1ccccc1 | 55.2 µM | > 100 µM | 56 µM |  | 35 µM | 80.6 µM | 37.9 µM | 73.5 µM | 77.1 µM | 61.3 µM | > 100 µM | 70.3 µM | > 100 µM | 40.2 µM | 61.3 µM | 50 µM |  | 62.6 µM |
| CC(C)(C)OC(=O)NC(CCC(=O)OCc1ccccc1)C(=O)NCCCO (centres undefined) | > 100 µM | > 100 µM | > 100 µM | > 100 µM | > 100 µM | > 100 µM | > 100 µM | > 100 µM |  |  | > 100 µM | > 100 µM | > 100 µM | > 100 µM | > 100 µM | > 100 µM | > 100 µM | > 100 µM |
| Nc1[nH]c(=S)c2c(N)n[nH]c2c1C(=O)Nc1ccccc1 | > 100 µM | > 100 µM | > 100 µM | > 100 µM | > 100 µM | > 100 µM | > 100 µM | > 100 µM |  | > 100 µM | > 100 µM | > 100 µM | > 100 µM | > 100 µM | > 100 µM | > 100 µM | > 100 µM |  |
| COc1cccc(-c2nc3ccccc3c(=O)[nH]2)c1OC | > 100 µM | > 100 µM |  |  | > 100 µM | > 100 µM | > 100 µM | > 100 µM | > 100 µM | > 100 µM | > 100 µM | > 100 µM | > 100 µM | > 100 µM | > 100 µM | > 100 µM | > 100 µM | > 100 µM |
